Read-outs that look alike come from different tables or passages of the source.
How the values were obtained:
[1] = biological target: human D2 receptor (Homo sapiens (Human), UniProt P14416); assay: Radioligand binding assay, [3H]-spiperone, human D2 receptor; conditions: membranes of HEK293 EBNA cells expressing human D2; 0.7 nM [3H]-spiperone
Method in brief: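 Membranes from HEK293 EBNA cells transiently expressing human D2 were incubated 1 h at RT with ~0.7 nM [3H]-spiperone and ten compound concentrations (10 μM–0.1 nM) in Tris buffer with NaCl, MgCl2, KCl, CaCl2, EDTA, pH 7.4.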

[2] = biological target: human D3 receptor (Homo sapiens (Human), UniProt P35462); assay: Radioligand binding assay, [3H]-spiperone, human D3 receptor; conditions: membranes of HEK293 EBNA cells expressing human D3; 0.5 nM [3H]-spiperone
Sequence of human D3 receptor (P35462 whole entry): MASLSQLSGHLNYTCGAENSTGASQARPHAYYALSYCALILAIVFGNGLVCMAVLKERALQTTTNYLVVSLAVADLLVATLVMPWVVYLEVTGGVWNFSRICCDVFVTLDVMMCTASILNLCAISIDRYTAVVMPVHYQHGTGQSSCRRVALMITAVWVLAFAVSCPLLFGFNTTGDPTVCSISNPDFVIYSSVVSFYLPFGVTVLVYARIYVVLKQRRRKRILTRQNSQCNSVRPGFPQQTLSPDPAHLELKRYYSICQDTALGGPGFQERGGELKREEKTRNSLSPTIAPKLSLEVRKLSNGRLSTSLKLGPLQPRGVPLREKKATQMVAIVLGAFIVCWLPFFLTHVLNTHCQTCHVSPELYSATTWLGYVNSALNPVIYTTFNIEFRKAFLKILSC
Method in brief: (§1)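 Membranes from transiently transfected HEK293 EBNA cells were incubated 1 h at RT with ten compound concentrations (10 μM-0.1 nM) and radioligand: 0.5 nM [3H]-spiperone for D3 (Tris/NaCl/Mg/Ca buffer, pH 7.4) or 1.1 nM [3H]-ketanserin for 5-HT2A (Tris/MgCl2/EGTA, pH 7.4).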

[3] = biological target: human 5-HT2A receptor (Homo sapiens (Human), UniProt P28223); assay: Radioligand binding assay, [3H]-ketanserin, human 5-HT2A receptor
Sequence of human 5-HT2A receptor (P28223 whole entry): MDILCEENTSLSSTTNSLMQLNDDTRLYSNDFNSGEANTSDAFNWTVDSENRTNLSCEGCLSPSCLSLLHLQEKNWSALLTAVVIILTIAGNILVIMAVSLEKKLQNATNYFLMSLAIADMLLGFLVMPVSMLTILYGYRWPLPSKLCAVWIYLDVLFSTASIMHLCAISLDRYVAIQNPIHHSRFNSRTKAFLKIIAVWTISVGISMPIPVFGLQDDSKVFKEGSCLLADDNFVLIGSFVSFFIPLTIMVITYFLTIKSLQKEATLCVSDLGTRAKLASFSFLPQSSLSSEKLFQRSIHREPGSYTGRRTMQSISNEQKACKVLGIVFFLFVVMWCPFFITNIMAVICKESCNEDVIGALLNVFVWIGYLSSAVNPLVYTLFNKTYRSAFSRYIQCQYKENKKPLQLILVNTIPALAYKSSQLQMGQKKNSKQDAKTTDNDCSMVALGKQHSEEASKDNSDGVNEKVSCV
Method in brief: as §1

[4] = membranes of HEK293 EBNA cells expressing human 5-HT2A, 1.1 nM [3H]-ketanserin

Sequence of human D2 receptor (P14416 whole entry): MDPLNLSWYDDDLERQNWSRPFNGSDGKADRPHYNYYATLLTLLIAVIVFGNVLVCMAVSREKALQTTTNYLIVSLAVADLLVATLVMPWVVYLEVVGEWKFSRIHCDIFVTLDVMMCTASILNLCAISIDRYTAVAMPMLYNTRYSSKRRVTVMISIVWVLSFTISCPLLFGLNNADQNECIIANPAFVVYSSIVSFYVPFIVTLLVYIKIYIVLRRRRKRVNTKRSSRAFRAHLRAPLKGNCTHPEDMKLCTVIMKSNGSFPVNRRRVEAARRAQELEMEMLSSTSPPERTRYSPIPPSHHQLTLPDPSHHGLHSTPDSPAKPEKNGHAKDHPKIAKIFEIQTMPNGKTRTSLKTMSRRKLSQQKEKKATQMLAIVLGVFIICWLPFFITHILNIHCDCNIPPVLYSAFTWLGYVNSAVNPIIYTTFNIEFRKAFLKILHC

Compound	Ki [1] [nM]	Ki [2] [nM]	Ki [3, 4] [nM]	melting point [°C]	Ki [3] [nM]
O=C(CO)N[C@H]1CC[C@H](CCN2CCN(c3nccc4c3CCO4)CC2)CC1 [Example 40, trans-N-(4-{2-[4-(2,3-Dihydrofuro[3,2-c]pyridin-4-yl)-piperazin-1-yl]-ethyl}-cyclohexyl)-hydroxyacetamide]	1570	15.9	12.2	237	–
O=C(CCO)N[C@H]1CC[C@H](CCN2CCN(c3nccc4c3CCO4)CC2)CC1 [Example 41, trans-N-(4-{2-[4-(2,3-Dihydrofuro[3,2-c]pyridin-4-yl)-piperazin-1-yl]-ethyl}-cyclohexyl)-3-hydroxypropanamide]	734	11.5	–	173	35.7
O=C(N[C@H]1CC[C@H](CCN2CCN(c3nccc4c3CCO4)CC2)CC1)c1ccccc1 [Example 44, trans-N-(4-{2-[4-(2,3-Dihydro-furo[3,2-c]pyridin-4-yl)-piperazin-1-yl]-ethyl}-cyclohexyl)-benzamide]	481	7.66	7.63	207.5	–
O=C(N[C@H]1CC[C@H](CCN2CCN(c3nccc4c3CCO4)CC2)CC1)c1ccc(F)cc1 [Example 45, trans-N-(4-{2-[4-(2,3-Dihydro-furo[3,2-c]pyridin-4-yl)-piperazin-1-yl]-ethyl}-cyclohexyl)-4-fluoro-benzamide]	342	10.7	–	209.5	11.1
O=C(N[C@H]1CC[C@H](CCN2CCN(c3nccc4c3CCO4)CC2)CC1)c1ccc(Cl)cc1 [Example 46, trans-4-Chloro-N-(4-{2-[4-(2,3-dihydro-furo[3,2-c]pyridin-4-yl)-piperazin-1-yl]-ethyl}-cyclohexyl)-benzamide]	289	13.2	–	226.5	14.8
O=C(N[C@H]1CC[C@H](CCN2CCN(c3nccc4c3CCO4)CC2)CC1)c1ccc(C(F)(F)F)cc1 [Example 47, trans-N-(4-{2-[4-(2,3-Dihydro-furo[3,2-c]pyridin-4-yl)-piperazin-1-yl]-ethyl}-cyclohexyl)-4-trifluoromethyl-benzamide]	871	57	18.8	227	–
CS(=O)(=O)N[C@H]1CC[C@H](CCN2CCN(c3nccc4c3CCO4)CC2)CC1 [Example 48, trans-N-(4-{2-[4-(2,3-Dihydro-furo[3,2-c]pyridin-4-yl)-piperazin-1-yl]-ethyl}-cyclohexyl)-methanesulfonamide]	1270	31.6	21.7	220	–
CCS(=O)(=O)N[C@H]1CC[C@H](CCN2CCN(c3nccc4c3CCO4)CC2)CC1 [Example 49, Ethanesulfonic acid trans-(4-{2-[4-(2,3-dihydro-furo[3,2-c]pyridin-4-yl)-piperazin-1-yl]-ethyl}-cyclohexyl)-amide]	1090	22	–	224	17.6
O=S(=O)(N[C@H]1CC[C@H](CCN2CCN(c3nccc4c3CCO4)CC2)CC1)c1ccc(F)cc1 [Example 50, trans-N-(4-{2-[4-(2,3-Dihydro-furo[3,2-c]pyridin-4-yl)-piperazin-1-yl]-ethyl}-cyclohexyl)-4-fluoro-benzenesulfonamide]	240	6.72	39.4	221	–
O=C(CC1CC1)N[C@H]1CC[C@H](CCN2CCN(c3nccc4c3CCO4)CC2)CC1 [Example 51, trans-2-Cyclopropyl-N-(4-{2-[4-(2,3-dihydro-furo[3,2-c]pyridin-4-yl)-piperazin-1-yl]-ethyl}-cyclohexyl)-acetamide]	587	5.07	–	193	13.7
O=C(N[C@H]1CC[C@H](CCN2CCN(c3nccc4c3CCO4)CC2)CC1)C1CCC1 [Example 52, Cyclobutanecarboxylic acid trans-(4-{2-[4-(2,3-dihydro-furo[3,2-c]pyridin-4-yl)-piperazin-1-yl]-ethyl}-cyclohexyl)-amide]	555	15.7	10.1	202	–
C[C@]1(O)CC[C@H](C(=O)N[C@H]2CC[C@H](CCN3CCN(c4nccc5c4CCO5)CC3)CC2)CC1 [Example 54, trans-4-Hydroxy-4-methyl-cyclohexanecarboxylic acid trans-(4-{2-[4-(2,3-dihydro-furo[3,2-c]pyridin-4-yl)-piperazin-1-yl]-ethyl}-cyclohexyl)-amide]	506	51.4	12.6	171	–
C[C@]1(O)CC[C@@H](C(=O)N[C@H]2CC[C@H](CCN3CCN(c4nccc5c4CCO5)CC3)CC2)CC1 [Example 55, cis-4-Hydroxy-4-methyl-cyclohexanecarboxylic acid trans-(4-{2-[4-(2,3-dihydro-furo[3,2-c]pyridin-4-yl)-piperazin-1-yl]-ethyl}-cyclohexyl)-amide]	475	45.3	6.14	216.5	–
O=C(N[C@H]1CC[C@H](CCN2CCN(c3nccc4c3CCO4)CC2)CC1)c1ccc(N2CCCCC2)cc1 [Example 56, trans-N-(4-{2-[4-(2,3-Dihydro-furo[3,2-c]pyridin-4-yl)-piperazin-1-yl]-ethyl}-cyclohexyl)-4-piperidin-1-yl-benzamide]	5340	44.3	–	214.5	19.2
O=C(N[C@H]1CC[C@H](CCN2CCN(c3nccc4c3CCO4)CC2)CC1)c1ccc(N2CCOCC2)cc1 [Example 57, trans-N-(4-{2-[4-(2,3-Dihydro-furo[3,2-c]pyridin-4-yl)-piperazin-1-yl]-ethyl}-cyclohexyl)-4-morpholin-4-yl-benzamide]	867	16.9	4.52	228.5	–
O=C(N[C@H]1CC[C@H](CCN2CCN(c3nccc4c3CCO4)CC2)CC1)C1(O)CC1 [Example 58, 1-Hydroxy-cyclopropanecarboxylic acid trans-(4-{2-[4-(2,3-dihydro-furo[3,2-c]pyridin-4-yl)-piperazin-1-yl]-ethyl}-cyclohexyl)-amide]	593	27.1	5.92	174.5	–
N#CCC(=O)N[C@H]1CC[C@H](CCN2CCN(c3nccc4c3CCO4)CC2)CC1 [Example 59, trans-2-Cyano-N-(4-{2-[4-(2,3-dihydro-furo[3,2-c]pyridin-4-yl)-piperazin-1-yl]-ethyl}-cyclohexyl)-acetamide]	702	7.74	–	188	15.7
O=C(CC(F)(F)F)N[C@H]1CC[C@H](CCN2CCN(c3nccc4c3CCO4)CC2)CC1 [Example 60, trans-N-(4-{2-[4-(2,3-Dihydro-furo[3,2-c]pyridin-4-yl)-piperazin-1-yl]-ethyl}-cyclohexyl)-3,3,3-trifluoro-propionamide]	688	6.55	11	195.5	–
O=C(N[C@H]1CC[C@H](CCN2CCN(c3nccc4c3CCO4)CC2)CC1)C1CC1 [Example 63, Cyclopropanecarboxylic acid trans-(4-{2-[4-(2,3-dihydro-furo[3,2-c]pyridin-4-yl)-piperazin-1-yl]-ethyl}-cyclohexyl)-amide]	486	18.5	11.1	213	–
CO[C@H]1CC[C@H](CC(=O)N[C@H]2CC[C@H](CCN3CCN(c4nccc5c4CCO5)CC3)CC2)CC1 [Example 65, trans-N-(4-{2-[4-(2,3-Dihydro-furo[3,2-c]pyridin-4-yl)-piperazin-1-yl]-ethyl}-cyclohexyl)-2-trans-(4-methoxy-cyclohexyl)-acetamide]	2450	24.1	14.9	192.5	–
CN(C)S(=O)(=O)N[C@H]1CC[C@H](CCN2CCN(c3nccc4c3CCO4)CC2)CC1 [Example 66, N′-trans-(4-{2-[4-(2,3-dihydro-furo[3,2-c]pyridin-4-yl)-piperazin-1-yl]-ethyl}-cyclohexyl)-N,N-dimethyl-sulfamide]	782	24.9	11.5	139.5	–
O=C(C[C@H]1CCCO1)N[C@H]1CC[C@H](CCN2CCN(c3nccc4c3CCO4)CC2)CC1 [Example 68, trans-N-(4-{2-[4-(2,3-Dihydro-furo[3,2-c]pyridin-4-yl)-piperazin-1-yl]-ethyl}-cyclohexyl)-2-(R)-(tetrahydro-furan-2-yl)-acetamide]	915	27.1	–	183	14.6
O=C(C[C@@H]1CCCO1)N[C@H]1CC[C@H](CCN2CCN(c3nccc4c3CCO4)CC2)CC1 [Example 69, trans-N-(4-{2-[4-(2,3-Dihydro-furo[3,2-c]pyridin-4-yl)-piperazin-1-yl]-ethyl}-cyclohexyl)-2-(S)-(tetrahydro-furan-2-yl)-acetamide]	858	18.1	–	183.5	24.9

Source: US8586579B2, “Anellated pyridine compounds” (Hoffmann-La Roche Inc., priority 2010, dated 2013)
